According to patent US8697692B2, “Pyrrolo [3,2-c] pyridine-4-one 2-indolinone protein kinase inhibitors” (Shanghai Hengrui Pharmaceutical Co., Ltd., priority 2006, dated 2014):

Molecular target: T1, recombinant human VEGF-R2 (Homo sapiens, UniProt P35968)
T1 construct: purchased Cell signaling technology #7787
Experiment: VEGF-R2 Kinase Assay (ELISA)
Format: biochemical
Settings: 10 μM ATP, 25° C. 30 minutes, read-out: IC50 (VEGFR/bio)
Procedure: This assay is used to measure the in vitro kinase activity of recombinant human VEGF-R2 in an ELISA assay.
c. Stop Buffer: 50 mM EDTA, pH 8.0.
d. DELFIA® Europium-labeled Anti-mouse IgG (PerkinElmer Life Sciences #AD0124).
f. DELFIA® Streptavidin coated, 96-well, yellow plate (PerkinElmer Life Sciences #AAAND-0005).
k. HTScan™ Tyrosine Kinase Buffer (4×)
The following protocol was used:
1. Dilute test compound with DMSO to the desired final assay concentration.
2. Dilute 6 μM substrate peptide (Tyr87) 1:1 with dH2O, add 15 μl to every assay.
3. Immediately transfer VEGF-R2 enzyme from −80° C. to ice. Allow enzyme to thaw on ice.
4. Take 2.2 μg VEGF-R2 enzyme to the enzyme tube.
6. Transfer 0.75 ml of DTT/Kinase buffer to each enzyme tube to make 4× reaction cocktail. Add 7.5 μl 4× reaction cocktail to every assay.
7. Add 2 μl ATP (10 mM) to 498 μl dH2O, take 7.5 μl for every assay. Final Assay Conditions for a 30 μl Reaction
Incubate reaction tube at 25° C. for 30 minutes. 9. Add 30 μl/assay stop buffer (50 mM EDTA, pH 8.0) to stop the reaction. 10. Transfer 25 μl of each reaction and 75 μl dH2O/well to a 96-well streptavidin coated plate and incubate, with shaking at room temperature for 60 minutes. 11. Wash three times with 200 μl/well PBS-T buffer. Pat plate on paper towel to remove excess liquid. 12. […] Add 100 μl diluted primary antibody to each well. 13. Incubate, with shaking at room temperature for 60 minutes. 14. Wash as described above in step 11. 15. Dilute Europium labeled anti-mouse IgG 1:500 in PBS-T buffer with 1% BSA. Add 100 μl diluted antibody to each well. 16. Incubate, with shaking at room temperature for 30 minutes. 17. Wash five times with 200 μl/well PBS-T buffer. Pat plate on paper towel to remove excess liquid. 18. Add 100 μl/well DELFIA® Enhancement Solution. 19. Incubate, with shaking at room temperature for 5 minutes. 20. Detect 615 nm fluorescence emission with appropriate Time-Resolved Plate Reader.
X=the fluorescence value of the well contained test compound
The IC50 value can be derived from the IRs of compounds at different concentration gradients.

T1 sequence (P35968 20-1356): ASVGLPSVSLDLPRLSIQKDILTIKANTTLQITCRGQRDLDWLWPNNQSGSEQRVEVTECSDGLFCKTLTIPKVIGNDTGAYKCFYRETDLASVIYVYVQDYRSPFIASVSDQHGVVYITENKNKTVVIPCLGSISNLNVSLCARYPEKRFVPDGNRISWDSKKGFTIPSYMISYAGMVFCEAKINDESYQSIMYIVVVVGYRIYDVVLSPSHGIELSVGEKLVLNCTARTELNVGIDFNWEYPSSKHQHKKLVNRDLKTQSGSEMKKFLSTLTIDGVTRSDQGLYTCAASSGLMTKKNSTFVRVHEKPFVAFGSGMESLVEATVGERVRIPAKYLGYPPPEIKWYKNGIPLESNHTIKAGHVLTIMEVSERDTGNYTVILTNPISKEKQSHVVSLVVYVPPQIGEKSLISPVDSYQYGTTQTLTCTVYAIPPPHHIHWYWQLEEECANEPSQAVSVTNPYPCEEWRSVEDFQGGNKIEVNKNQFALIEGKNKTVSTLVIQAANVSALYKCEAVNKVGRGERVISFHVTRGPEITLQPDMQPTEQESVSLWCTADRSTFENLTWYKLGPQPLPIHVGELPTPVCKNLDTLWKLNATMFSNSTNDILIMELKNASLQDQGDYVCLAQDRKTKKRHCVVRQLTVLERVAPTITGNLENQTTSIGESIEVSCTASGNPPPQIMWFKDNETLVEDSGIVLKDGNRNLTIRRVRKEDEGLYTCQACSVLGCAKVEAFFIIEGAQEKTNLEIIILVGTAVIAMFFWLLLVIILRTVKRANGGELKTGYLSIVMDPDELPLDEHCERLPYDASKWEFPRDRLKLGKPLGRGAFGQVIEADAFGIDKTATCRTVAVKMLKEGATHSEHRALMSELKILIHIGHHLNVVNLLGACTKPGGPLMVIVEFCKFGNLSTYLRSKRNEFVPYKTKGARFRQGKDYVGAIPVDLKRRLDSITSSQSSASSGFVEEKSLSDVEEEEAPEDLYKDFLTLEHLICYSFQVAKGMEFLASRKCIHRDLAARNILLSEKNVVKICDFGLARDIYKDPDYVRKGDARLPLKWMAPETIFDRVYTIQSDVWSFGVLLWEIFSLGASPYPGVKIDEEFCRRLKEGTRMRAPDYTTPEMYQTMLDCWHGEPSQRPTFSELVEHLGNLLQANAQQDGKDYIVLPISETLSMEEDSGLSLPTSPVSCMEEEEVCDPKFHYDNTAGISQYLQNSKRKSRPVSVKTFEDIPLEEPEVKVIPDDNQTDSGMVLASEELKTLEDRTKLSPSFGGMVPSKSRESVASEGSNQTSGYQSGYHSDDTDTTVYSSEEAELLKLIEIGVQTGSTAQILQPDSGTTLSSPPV

IC50	Structure (SMILES)
7.1 nM	CCN(CC)CCN1CCc2[nH]c(/C=C3\C(=O)Nc4cccc(-c5cccc(F)c5F)c43)c(C)c2C1=O [Example 39, 5-(2-diethylamino-ethyl)-2-[4-(2,3-difluoro-phenyl)-2-oxo-1,2-dihydro-indol-3-ylidenemethyl]-3-methyl-1,5,6,7-tetrahydro-pyrrolo[3,2-c]pyridin-4-one]
10 nM	CCN(CC)CCN1CCc2[nH]c(/C=C3\C(=O)Nc4cccc(-c5cccc(Cl)c5F)c43)c(C)c2C1=O [Example 36, 2-[4-(3-Chloro-2-fluoro-phenyl)-2-oxo-1,2-dihydro-indol-3-ylidenemethyl]-5-(2-diethylamino-ethyl)-3-methyl-1,5,6,7-tetrahydro-pyrrolo[3,2-c]pyridin-4-one]
94 nM	CCN(CC)CCN1CCc2[nH]c(/C=C3\C(=O)Nc4cccc(Br)c43)c(C)c2C1=O [Example 30, 2-(4-Bromo-2-oxo-1,2-dihydro-indol-3-ylidenemethyl)-5-(2-diethylamino-ethyl)-3-methyl-1,5,6,7-tetrahydro-pyrrolo[3,2-c]pyridin-4-one]
11 nM	CCN(CC)CCN1CCc2[nH]c(/C=C3\C(=O)Nc4cccc(-c5ccc(Cl)cc5F)c43)c(C)c2C1=O [Example 34, 2-[4-(4-Chloro-2-fluoro-phenyl)-2-oxo-1,2-dihydro-indol-3-ylidenemethyl]-5-(2-diethylamino-ethyl)-3-methyl-1,5,6,7-tetrahydro-pyrrolo[3,2-c]pyridin-4-one]

Further lines, the compound ahead of its results:

Structure (SMILES)	IC50
CCN(CC)CCN1CCc2[nH]c(/C=C3\C(=O)Nc4ncnc(Nc5ccc(F)c(Cl)c5)c43)c(C)c2C1=O [Example 12, 4-(3-Chlor O-4-fluoro-phenylamino)-5-[5-(2-diethylamino-ethyl)-3-methyl-4-oxo-4,5,6,7-tetrahydro-1H-pyrrolo[3,2-c]pyridine-2-ylmethylene]-5,7-dihydro-pyrrolo[2,3-d]pyrimidin-6-one]	1890 nM
CCN(CC)CCN1CCc2[nH]c(/C=C3\C(=O)Nc4cccc(C5CCNCC5)c43)c(C)c2C1=O [Example 31, 5-(2-Diethylamino-ethyl)-3-methyl-2-(2-oxo-4-piperidin-4-yl-1,2-dihydro-indol-3-ylidenemethyl)-1,5,6,7-tetrahydro-pyrrolo[3,2-c]pyridin-4-one]	35 nM
Cc1c(/C=C2\C(=O)Nc3ccc(Cl)cc32)[nH]c2c1C(=O)N(CCN1CCOCC1)CC2 [Example 16, 2-(5-Chloro-2-oxo-1,2-dihydro-indol-3-ylidenemethyl)-3-methyl-5-(2-morpholin-4-yl-ethyl)-1,5,6,7-tetrahydro-pyrrolo[3,2-c]pyridin-4-one]	44 nM
Cc1c(/C=C2\C(=O)Nc3ncnc(Nc4ccc(F)c(Cl)c4)c32)[nH]c2c1C(=O)N(CCN1CCOCC1)CC2 [Example 24, 4-(3-Chloro-4-fluoro-phenylamino)-5-[3-methyl-5-(2-morpholin-4-yl-ethyl)-4-oxo-4,5,6,7-tetrahydro-1H-pyrrolo[3,2-c]pyridine-2-ylmethylenene]-5,7-dihydro-pyrrolo[2,3-d]pyrimidin-6-one]	680 nM
CCN(CC)CCN1CCc2[nH]c(/C=C3\C(=O)Nc4cccc(CCO)c43)c(C)c2C1=O [Example 37, 5-(2-Diethylamino-ethyl)-2-[4-(2-hydroxy-ethyl)-2-oxo-1,2-dihydro-indol-3-ylidenemethyl]-3-methyl-1,5,6,7-tetrahydro-pyrrolo[3,2-c]pyridin-4-one]	70 nM
Cc1c(/C=C2\C(=O)Nc3cccc(C4CCNCC4)c32)[nH]c2c1C(=O)N(CCN1CCOCC1)CC2 [Example 52, 3-Methyl-5-(2-morpholin-4-yl-ethyl)-2-(2-oxo-4-piperidin-4-yl-1,2-dihydro-indol-3-ylidenemethyl)-1,5,6,7-tetrahydro-pyrrolo[3,2-c]pyridin-4-one]	1270 nM
Cc1c(/C=C2\C(=O)Nc3ccc(Br)cc32)[nH]c2c1C(=O)N(CCN1CCCC1)CC2 [Example 40, 2-(5-Bromo-2-oxo-1,2-dihydro-indol-3-ylidenemethyl)-3-methyl-5-(2-pyrrolidin-1-yl-ethyl)-1,5,6,7-tetrahydro-pyrrolo[3,2-c]pyridin-4-one]	47 nM
